Experimental data from ChEMBL document CHEMBL1140504, “Mimetics of the tri- and tetrasaccharide epitope of GQ1balpha as myelin-associated glycoprotein (MAG) ligands” (Bioorg Med Chem, 2007).
Calls of active or inactive are those of the source. The rule behind the calls is not given here.

Target: T1, Myelin-associated glycoprotein (Homo sapiens) (UniProt P20916)
T1 sequence (whole entry): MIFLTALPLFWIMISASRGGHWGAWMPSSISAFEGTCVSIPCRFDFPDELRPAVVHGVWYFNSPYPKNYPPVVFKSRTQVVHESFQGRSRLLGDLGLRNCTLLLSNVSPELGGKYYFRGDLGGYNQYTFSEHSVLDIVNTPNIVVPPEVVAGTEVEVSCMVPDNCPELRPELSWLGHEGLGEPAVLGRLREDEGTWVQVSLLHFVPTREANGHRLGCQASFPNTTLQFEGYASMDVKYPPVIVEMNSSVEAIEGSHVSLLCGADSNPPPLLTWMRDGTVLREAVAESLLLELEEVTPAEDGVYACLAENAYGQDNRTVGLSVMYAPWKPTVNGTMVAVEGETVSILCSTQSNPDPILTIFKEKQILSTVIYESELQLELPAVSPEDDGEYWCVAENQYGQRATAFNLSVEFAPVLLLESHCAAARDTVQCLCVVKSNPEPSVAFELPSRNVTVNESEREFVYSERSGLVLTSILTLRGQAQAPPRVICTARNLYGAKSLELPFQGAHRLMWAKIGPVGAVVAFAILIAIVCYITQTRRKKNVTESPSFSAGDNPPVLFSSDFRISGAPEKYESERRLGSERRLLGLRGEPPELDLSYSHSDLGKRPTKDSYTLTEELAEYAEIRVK
Assay: Ratio of IC50 for drug to sodium (2S,4S,5R,6R)-5-acetami do-2-((2R,3R,4S,5S,6R)-2-((2R, 3R,4S,6S)-3-acetamido-6-(hydro xymethyl)-2-(2-(trimethylsilyl )ethoxy)-tetrahydro-2H-pyran-4 -yloxy)-3,5-dihydroxy-6-(hydro xymethyl)-tetrahydro-2H-pyran- 4-yloxy)-4-hydroxy-6-((1S,2R)- 1,2,3-trihydroxypropyl)-tetrah ydro-2H-pyran-2-carboxylate for human recombinant MAG N-terminal domain expressed in CHO cells
Type: cell-based

| Compound | Ratio IC50 | Activity |
| --- | --- | --- |
| CC(=O)N[C@H]1[C@H]([C@@H](O)[C@H](O)CO)O[C@@](Oc2cccc(-c3ccc(CC(=O)O)cc3)c2)(C(=O)O)C[C@@H]1O | 1 |  |
| CC(=O)N[C@H]1[C@H]([C@@H](O)[C@H](O)CO)O[C@@](OCc2ccccc2)(C(=O)O)C[C@@H]1O | 0.62 |  |
| CC(=O)N[C@H]1[C@H]([C@@H](O)[C@H](O)CO)O[C@@](Oc2cccc(-c3cn(CC(=O)O)nn3)c2)(C(=O)O)C[C@@H]1O | 1.1 |  |
| CC(=O)N[C@H]1[C@H]([C@@H](O)[C@H](O)CO)O[C@](Oc2ccc(Oc3ccccc3)cc2)(C(=O)O)C[C@@H]1O |  | inactive |
| CC(=O)N[C@H]1[C@H]([C@@H](O)[C@H](O)CO)O[C@@](Oc2ccc(Oc3ccccc3)cc2)(C(=O)O)C[C@@H]1O | 0.89 |  |
| CC(=O)N[C@H]1[C@H]([C@@H](O)[C@H](O)CO)O[C@@](OCc2ccc(-c3ccccc3)cc2)(C(=O)O)C[C@@H]1O | 0.38 |  |
| CC(=O)N[C@H]1[C@H]([C@@H](O)[C@H](O)CO)O[C@](OCc2cccc(Oc3ccccc3)c2)(C(=O)O)C[C@@H]1O |  | inactive |
| CO[C@]1(C(=O)O)C[C@H](O)[C@@H](NC(C)=O)[C@H]([C@@H](O)[C@H](O)CO)O1 | 0.07 |  |
| CC(=O)N[C@H]1[C@H]([C@@H](O)[C@H](O)CO)O[C@@](Oc2cccc(-c3cn(-c4ccc(C(=O)O)cc4)nn3)c2)(C(=O)O)C[C@@H]1O | 0.9 |  |
| CC(=O)N[C@H]1[C@H](OCC[Si](C)(C)C)O[C@H](CO[C@]2(C(=O)O)C[C@H](O)[C@@H](NC(C)=O)[C@H]([C@H](O)[C@H](O)CO)O2)C[C@@H]1O[C@@H]1O[C@H](CO)[C@H](O)[C@H](O[C@]2(C(=O)O)C[C@H](O)[C@@H](NC(C)=O)[C@H]([C@@H](O)[C@H](O)CO)O2)[C@H]1O | 4 |  |
